The text below walks through data of paper PMC12973313 (Chemical Science, 2026).

Series [1] can be described thus: 1H NMR titration, host:guest association. The following applies: 1:1 binding isotherm, DMSO-d6 0.5% H2O, 298 K, guest as TBA salt. The source says:
Here H2PO4^- was used to model the phosphate present in the phospholipid headgroup, while Cl^- was incorporated into these studies as a common biologically relevant anion. […] Summary […] using Bindfit v0.5,1 conducted in DMSO-d6/0.5 % H2O at 298 K. Anionic guest species were supplied as the TBA salt. Data was fitted to both 1:1, 1:2 and 2:1 binding isotherm. […] 94

The subject of the next series is E. Faecalis NCTC 12201. The series can be described thus: MIC assay. The following applies: Enterococcus faecalis, NCTC12201; lowest concentration with no visible growth. It counts as cell-based. How it is done:
(§1) Section S3: Biological methods […]
(§2) Preparation of bacterial plates : Sterile TSB agar plates were streaked using the desired bacteria [Staphylococcus aureus (9144, 13616, USA 300 and 1199B ), Enterococcus faecalis (NCTC 775 and 12201 ) and Enterococcus faecium (NCTC 12204)] and incubated at 37 °C […]
(§3) Preparation of inoculum: An initial culture was made up by inoculating TSB (5 mL) with 3 single colonies of the desired bacteria under sterile conditions and incubated at 37 °C overnight. The optical density at 600 nm (OD 600) was adjusted using sterile distilled H 2O (dH2O) to equal ~1 x 10^6 bacteria/mL.
(§4) Preparation of 96 -well microplate : A solution of each compound in H2O/5 % EtOH was made […]
(§5) . The compound solution (200
(§6) […]. The bacterial suspension (100 µL) was dispensed into each well under sterile conditions. The plates were sealed using parafilm and incubated at 37 °C for 20 hours, after which the OD 600 was measured.

Another series concerns E. Faecium NCTC 12204. The series can be described thus: MIC assay. It counts as cell-based. The settings on record: Enterococcus faecium, NCTC12204; lowest concentration with no visible growth. How it is done:
as §1, §2, §3, §4, §5, §6

For a further series, the system named is E. Faecalis NCTC 775. Kind of series: MIC assay. In kind it is cell-based, Enterococcus faecalis. The settings on record: for MIC: Enterococcus faecalis, NCTC775, lowest concentration with no visible growth. The procedure:
as §1, §2, §3, §4, §5, §6

Series [2] deals with A2780 ovarian cancer cells. Kind of series: GI50 determination, SRB assay. In kind it is cell-based, human. The settings on record: for GI50: 96 hours, read-out: Mean GI50 (μM) A2780 SRB Assays. The procedure:
(§7) GI50 determination assays
(§8) Cell culture: The RPE-1 retinal pigment epithelial, A2780 human ovarian carcinoma, and A2780 CisR cisplatin resistant human ovarian carcinoma cell lines were donated with thanks from the Institute of Cancer Research. The A2780 and A2780 CisR cell lines were cultured in IMDM supplemented with 10 % FBS at 37 °C and 5 % CO2, while the RPE-1 cell line was cultured in a 1:1 mixture of Dulbecco's Modified Eagle Medium and Ham’s F-12 Nutrient Mixture (DMEM/F-12) at 37 °C and 5 % CO2.
(§9) SRB assay: Cells were seeded into 96-well plates at 800 cells per well/cpw (A2780), 1600 cpw (A2780 CisR) or 400 cpw (RPE-1) in cell culture medium and cultured for 48 hours followed by addition of each compound over an eight-point concentration range (each concentration in triplicate). Plates were then cultured for a further 96 hours, after which the cell culture […]
(§10) medium was removed from each well and the cells fixed with addition of 70 µL/well of 10 % (w/v) trichloroacetic acid (TCA) in distilled water followed by incubation for 30 minutes at RT.
(§11) Each plate was then washed with distilled water five times before addition of 70 µL SRB dye (0.4 % (w/v) SRB dye (ThermoFisher Scientific, USA) solubilised in 1 % (v/v) acetic acid/ dH2O) and incubat ed for 30 minutes at RT, followed by washing three times with 1 % (v/v) acetic acid and drying in a 37 °C oven overnight. Once dry, 100 μl of 10 mM Tris -base (ThermoFisher Scientific, USA) was added to each well and plates put on a microplate shaker for 10 minutes at 200 rpm to solubilize the dye. Absorbance values were then read at wavelength 490 nm on a Victor X4 multi-label plate reader (PerkinElmer Life Sciences, USA), data analysed using Microsoft Excel and graphs produced using GraphPad Prism 9.0 and the GI50 value calculated.
(§12) Solutions and compo und preparation: All solvents and starting materials were purchased from known chemical suppliers. Compound stock solutions were prepared in DMSO. Buffer […]
(§13) 500 mM. Buffer B consisted of Na2SO4 (167 mM) and NaOAc (5 mM) with a pH of 5.5 and an ionic strength of 500 mM.
(§14) Vesicle formation: Giant unilamellar Vesicles (GUVS) were prepared through the electro formation method using a Nanion VesiclePrepPro. A solution of 1,2-diphytanoyl-sn-glycero-3-phosphocholine (DPhPC) (10 mM) with 10 % cholesterol in chloroform (20 µL) was deposited onto an ITO coated glass surface (surface coated glass slide) and allowed to evaporate to create a dehydrated thin lipid film. A greased O-ring was then placed around the dehydrated lipid film to create a seal. This volume was then filled with a sucrose solution (275 µL, 200 mM) and then sealed with a second ITO coated glass slide. An AC current (3 V/5 Hz) was then applied. After 2 hrs, the voltage and frequency were reduced in steps over 30 mins to 1.6 V/1 Hz and held for 1 hr before being reduced to 0 V/0 Hz over a further 30 min […]
(§15) Patch clamp measurements: Experiments were performed using a Port-a-Patch system (Nanion Technologies) with borosilicate glass chips that contain an aperture diameter of approximately 1 µm. Buffer A (5 µL) was placed on the underside of the chip over the aperture, The chip was then placed into the port-a-patch system. Buffer A (15 µL) was then added to the top of the chip and 5 µL of the GUV stock solution added. The GUVS were the positioned over the aperture in the chip by application of negative pressure (-30 mbar).
(§16) When a GUV is positioned over the aperture in the chip, it bursts, leaving a planar bilayer as a seal. The negative pressure is then removed, leaving the planar bilayer in place over the aperture. The external buffer A was the exchanged with buffer B, through four simultaneous […]
(§17) buffer exchanges (4 x 15 µL). […]
(§18) = 30 s, to give a final experimental concentration of 0.1 – 1 mM as appropriate. The number of sweeps was set to 1000, the sweep interval to 0.00 s, sample interval to 1.00 ms and the protocol was run for a total of 5 mins. Each experiment was repeated a minimum of three time to ensure reproducibility.
For orientation: In SRB staining, fixed cells bind dye roughly in proportion to their protein.

For a further series, the system named is RPE-1 cells. Kind of series: GI50 determination, SRB assay. In kind it is cell-based, human. The settings on record: read-out: Mean GI50 (μM) RPE-1 SRB Assays. The procedure:
as §7, §8, §9, §10, §11, §12, §13, §14, §15, §16, §17, §18

Series [3] in a line: Surface tension (pendant drop) / CAC determination, H2O 5% EtOH. It counts as physicochemical. The following applies: for Surface tension (mN m^-1): H2O 5% EtOH, at limit of SSA solubility = 5.56 mM; for CAC: H2O/5 % EtOH, above the limit of solubility. The source says: Here, the CAC is defined as the concentration at which any additional SSA added to a solution will result in the production of high-order self-associated species. […] To determine CAC, we used the pendant drop method to elucidate the surface tension of H2O 5% EtOH solutions of 1, 3, 5, 7, 9, and 1 : 1 SSA enantiomeric mixtures at 291 K (Table 2).

In brackets after ≈: the same amount, converted by molar mass. Several values for one entry are separate records, joined by “and”; a condition that tells them apart may be missing. Identical values can stand only once. Like-named read-outs stand apart in the source and are kept apart here.

Regarding `O=C(O)CNC(=O)Nc1ccc(C(F)(F)F)cc1` [SSA 1], in series [1], the “Ka / Kass (M-1), guest Cl-” value was found to be 4.33 M⁻¹. Also, the “Ka / Kass (M-1), guest H2PO4-” value in series [1] is 12.59 M⁻¹. Also, the MIC against E. Faecalis NCTC 12201, against E. Faecium NCTC 12204 and in the series with E. Faecalis NCTC 775 was > 2.78 mM in each case. Moreover, the GI50 in series [2] (Homo sapiens, A2780, 96 h) was 117 µM; in the series on RPE-1 cells (Homo sapiens, RPE-1, 96 h), 296 µM.
`CC(C)CC(NC(=O)Nc1ccc(C(F)(F)F)cc1)C(=O)O` (centres unmarked) [SSA 3]: in series [1], the “Ka / Kass (M-1), guest Cl-” value is “No evidence of host: guest complex formation detected”. Besides, the “Ka / Kass (M-1), guest H2PO4-” value in series [1] is “No evidence of host: guest complex formation detected”. For the same compound, the MIC against E. Faecalis NCTC 12201, in the series with E. Faecium NCTC 12204 and in the series on E. Faecalis NCTC 775 was > 2.78 mM each time. Further, the GI50 in series [2] (Homo sapiens, A2780, 96 h) is 171 µM; in the series on RPE-1 cells (Homo sapiens, RPE-1, 96 h) it was > 500 µM. The “Surface tension (mN m^-1)” value in series [3] (listed as 3) is 40.92 mN m^−1 and 40.92 ^c mN m^−1. In series [3], the CAC is recorded as > 5.56 mM.
`CC(C)CC(NC(=O)Nc1ccc(C(F)(F)F)cc1)C(=O)O` (centres unmarked) [SSA 5]: the “Ka / Kass (M-1), guest Cl-” value in series [1] is on record as “No evidence of host: guest complex formation detected”. Further, the “MIC (mM) E. Faecalis NCTC 775” value against E. Faecalis NCTC 775 (lowest concentration with no visible growth, listed as 5) came out at 2.780 mM (≈ 885 µg/mL). The concentration for 50% growth inhibition (GI50) in series [2] was 231 µM; in the series with RPE-1 cells (96 hours), > 375 µM. Moreover, the “Surface tension (mN m^-1)” value in series [3] (listed as 5) is 40.92 mN m^−1 and 40.92 ^c mN m^−1.
On to `O=C(Nc1ccc(C(F)(F)F)cc1)N[C@@H](Cc1ccccc1)C(=O)O` [SSA 7], for which, in series [1], the “Ka / Kass (M-1), guest H2PO4-” value was 30.27 M⁻¹ and 30 M⁻¹. In addition, the MIC against E. Faecalis NCTC 12201, with E. Faecium NCTC 12204 and in the series with E. Faecalis NCTC 775 was > 2.78 mM in each case. The GI50 in series [2] (Homo sapiens, A2780, 96 h) is 178 µM; in the series with RPE-1 cells (Homo sapiens, RPE-1, 96 h), > 375 µM. In addition, in series [3], the “Surface tension (mN m^-1)” value was 39.83 mN m^−1 and 39.83 ^c mN m^−1. In addition, in series [3], the CAC was > 5.56 mM.
For the compound `O=C(Nc1ccc(C(F)(F)F)cc1)N[C@H](Cc1ccccc1)C(=O)O` [SSA 9], the “Ka / Kass (M-1), guest Cl-” value in series [1] was “No evidence of host: guest complex formation detected”. Further, the MIC against E. Faecalis NCTC 12201 is > 2.78 mM; against E. Faecium NCTC 12204, > 2.78 mM; against E. Faecalis NCTC 775 it was 2.78 mM (≈ 979 µg/mL). Besides, the GI50 in series [2] (Homo sapiens, A2780, 96 h) is 105 µM; with RPE-1 cells (Homo sapiens, RPE-1, 96 h) it was > 375 µM. Further, in series [2] (no impact on RPE-1 cell growth at 350 µM), the “selectivity for the cancer cells over the RPE-1 cells” value is given as “≥ two-fold”. Further, the “Surface tension (mN m^-1)” value in series [3] is 39.64 mN m^−1 and 39.64 ^c mN m^−1. For the same compound, the CAC in series [3] is on record as > 5.56 mM.

One may read the MIC as the smallest concentration in the dilution series that meets the test's criterion for growth inhibition. For orientation: GI50 means the concentration that inhibits growth by half.
